Measurements taken from article PMC11672137, “High-Affinity Lectin Ligands Enable the Detection of Pathogenic Pseudomonas aeruginosa Biofilms: Implications for Diagnostics and Therapy” (JACS Au, 2024).

Experiments:
LecA = target: T1, LecA (Pseudomonas aeruginosa, UniProt Q05097); experiment: Direct binding assay based on fluorescence polarization, titration with LecA
T1 construct: made in house
Method: The binding affinities of imaging probes 2–4 for LecA were determined using a direct binding assay based on fluorescence polarization (FP).[47]
(A, C) Monovalent LecA imaging probes 2–4 based on phenyl β-D-galactoside (1) were titrated with LecA. […] (E) Xyloside-fluorescein conjugate (8) and azido fluorescein (9) served as negative controls in titrations with LecA and LecB, respectively. Averages and standard deviations were determined from at least three independent titrations of technical triplicates each.
Direct binding affinity determination of LecA and LecB imaging probes was performed with direct titration of protein and imaging probes in TBS/Ca2+ buffer. Protein dilution series was prepared in 96 well plates and 10 µL of each dilution in triplicates were mixed with 10 µL of fluorescent compound (20 nM) in 384-well microtiter plates (Greiner Bio-One, Germany, cat no 781900). The plates were centrifuged (1 min, 500 g), sealed and incubated for 2 h in dark wet chamber under gentle shaking. Fluorescence was measured on a PheraStar FS plate reader (BMG Labtech GmbH, Germany) with excitation filters at 485 nm and emission filters at 535 nm. The data were analysed with MARS Data Analysis Software (BMG Labtech GmbH, Germany) to calculate Kd values.

[1] = tested on: P. aeruginosa PAO1 biofilm aggregates; experiment: In vitro biofilm staining under static conditions (CLSM); assay type: cell-based, Pseudomonas aeruginosa; conditions: 10 μM probe
Method: The ability of LecA- and LecB-targeting probes to image P. aeruginosa biofilms was evaluated in vitro. P. aeruginosa PAO1, constitutively expressing mCherry from plasmid pMP7605,[56] was cultivated in microtiter plates under shaking conditions to form biofilm aggregates, as reported previously.[43] Fluorescein-carbohydrate conjugates were added to the bacterial culture to reach a final concentration of 10 μM and biofilms were analyzed by confocal laser scanning microscopy (CLSM) under static conditions (Figures 2 and S4). […] To our surprise, the intended negative control xyloside 8 also stained the P. aeruginosa biofilms (Figures 2C and S4). In all cases, the green signal originating from the fluorescein conjugates was not homogeneously spread over the entire structure of the biofilm aggregates, but a certain heterogeneity was observed across biofilm regions as bright spots. Further, the intensity of staining varied between replicates (see the Supporting Information for individual experiments). […] Instead, only a very faint green shadow was detected for 9 indicating its suitability as a negative control. Thus, the observed biofilm staining with imaging probes 2, 3, 6, 7 and also xyloside 8 was carbohydrate dependent and while 2, 3 and 6, 7 are ligands of LecA and LecB, respectively, the molecular mechanism of xyloside 8 remains elusive.
One representative image of stained aggregates is shown. […] Scale bar = 50 μm.
P. aeruginosa PAO1 expressing the red fluorescent protein mCherry (pMP7605)23 was selected for this study. For this, P. aeruginosa PAO1 (DSM 19880, Braunschweig, Germany) was transformed with the mCherry plasmid (pMP7605).23 Bacteria were stored at -80 °C. For experimental use, bacteria were streaked on lysogeny broth (LB) agar (1% tryptone, 1% NaCl, 0,5% yeast extract, 1.3% agar) containing 60 µg/mL gentamicin (Gm) and incubated at 37 °C overnight. For liquid cultures, bacterial colonies were transferred from LB agar to 10 mL LB (1% tryptone, 1% NaCl, 0,5% yeast extract) containing 60 µg/mL Gm and incubated at 37 °C and 180 rpm overnight. For exponential growth, 10 mL of LB containing 60 µg/mL Gm were inoculated with P. aeruginosa PAO1 mCherry (pMP7605)23 using an overnight liquid culture […]
In vitro biofilm staining under static conditions
Biofilm staining experiments were performed in analogy to Wagner et al. with P. aeruginosa PAO1 pMP7605 (Figure S4).23,24 Bacterial overnight cultures were inoculated from single colonies in 5 mL LB supplemented with gentamicin (120 µg/mL) and grown at 37 °C and 180 rpm. The bacterial overnight cultures were then diluted to OD600 of 0.02 with LB and 500 µL of culture per well were transferred to 24-well plate (24CG, Art. No. 5231 or 24FC, Art. No. 3231). The biofilm was grown under shaking conditions (180 rpm) at 37 °C for 20–24 h. Biofilm aggregates were visualized using a confocal laser scanning microscope (Leica TCS Sp8 CLSM) using a 25× numerical-aperture water objective. Z-stacks (463 x 463 μm) were recorded every 2 μm for mCherry (ex.: 561 nm, red) and for fluorescein containing imaging compounds (ex.: 488 nm, green). […]
Maximum Intensity Projections (contrast range automatically adjusted by Imaris). Only one staining experiment was carried out for imaging probes 4 and S26, all other fluorescein conjugates were analyzed in at least three independent experiments.

[2] = tested on: P. aeruginosa PAO (DSM 1707) lung infection; experiment: Optical in vivo imaging and ex situ organ analysis in acute P. aeruginosa airway infection model; set-up: species or system mice
Method: Encouraged by the high affinity of the imaging probes and their ability to stain P. aeruginosa biofilms in vitro, we further investigated the compounds in vivo using an acute P. aeruginosa airway infection model in mice. Intratracheal administration of P. aeruginosa PAO (DSM 1707) results in a local infection that is mainly restricted to the lungs. With the infection dose of 2 × 10^6 cfu/50 μL chosen here, the number of bacteria peaks at 6 h after infection before the host immune system clears the bacteria.[70]
Then, imaging probes, divalent LecA-targeting probe 21, LecB-targeting probe 22 and the control sulfo-Cy7 (free acid), were administered intravenously to the tail vein 2 h post infection. […] This accumulation in the lungs was then confirmed by a subsequent ex vivo analysis of the organs.
Figure 6 Optical in vivo imaging in mice and ex situ analysis of organs with P. aeruginosa PAO acute lung infection. In vivo imaging of mice with P. aeruginosa intratracheal infection (right) or uninfected control mice (left) after intravenous administration of imaging probes 2 h post infection: (A) 50 nmol/20 g divalent LecA probe 21 or (B) 100 nmol/20 g LecB probe 22. Then, explanted lungs were analyzed for fluorescence intensity, shown as a false color scale in (C) divalent LecA probe 21 (left: uninfected, right: infected) and (D) LecB probe 22 (left: uninfected; middle: uninfected control without dye; right: infected). (E) Quantification of the average radiant efficiency of the divalent LecA ligand 21 and the control sulfo-Cy7 free acid in the lungs of uninfected and infected mice. Duplicate data points and the mean are depicted. (F) Average radiant efficiency was quantified for the LecB imaging probe 22 in lungs of infected and uninfected mice. In addition, (G) further mouse organs were explanted after i.v. injection of 21 (50 nmol/20 g) or control sulfo-Cy7 free acid (50 nmol/20 g) and imaged. Organs of uninfected (left), infected (right) mice, and uninfected mice without any dye (upper middle on the sulfo-Cy7 free acid rows) were compared. Fluorescence intensities are shown as false color pictures. […]
Lung infection model and in vivo imaging of P. aeruginosa
C57BL/6J and albino (Tyrc2J) C57BL/6 mice were bred and housed at the Central Animal Facility, Hannover Medical School, Germany. Animal experiments were performed with permission number: 33.9-42502-04-16/2072 from the Lower Saxony State Office for Consumer Protection and Food Safety (LAVES), Germany. Mice were anesthetized with 3% isoflurane (CP Pharma) and infected intratracheally with 2x10^6 cfu/50 µL of P. aeruginosa PAO (DSM1707, Braunschweig, Germany) as described previously.26
50 – 100 nmol sulfo-Cyanine7-compound (divalent LecA probe 21; LecB probe 22; control sulfoCy7 free acid, CAS no.: 2104632-30-4, Lumiprobe; control sulfoCy7 azide, 20, Lumiprobe) per 20 g mouse was injected intravenously 2 h after infection. Optical imaging was performed 4 – 7 h after compound administration. Mice were anesthetized with 3% isoflurane […]
an in vivo imaging system (IVIS SpectrumCT, PerkinElmer). Subsequently mice were euthanized and organs were imaged (675/760 nm) ex situ individually. To enhance Cyanine7 specific fluorescent signal spectral unmixing was performed on in vivo images using LivingImage 4.7 (PerkinElmer). […]

[3] = tested on: P. aeruginosa PAO1 biofilms; experiment: In vitro biofilm staining under flow conditions, compound supplementation to the medium; assay type: cell-based, Pseudomonas aeruginosa; conditions: for Biofilm staining after accumulation: 500 nM in medium, 4 h, fluorescence microscope; for Biofilm staining by CLSM after accumulation: 500 nM, 4 h accumulation, without washing
Method: P. aeruginosa biofilms were grown under flow conditions and observed by fluorescence microscopy in analogy to Ghanbari et al.[66] To this end, P. aeruginosa PAO1 expressing the red fluorescent protein mCherry[56] was diluted to an OD600 nm of 0.1 and injected into the microfluidics device. After a 30-min settling period, biofilms were grown under a constant laminar flow rate of 3 mL/h per channel. Following 48 h of incubation at 30 °C, dense and mature P. aeruginosa PAO1 biofilms were observed, which were then further used for analysis of the imaging probes.
To circumvent these technical drawbacks, the addition of compounds to the medium reservoir and retention at the biofilm was pursued. Imaging compounds were added to the medium reservoirs at a concentration of 500 nM, which were continuously pumped (3 mL/h) through the flow cell for 4 h. Compound accumulation at mature P. aeruginosa biofilms was immediately analyzed using fluorescence microscopy. Afterwards, the medium was exchanged, and the biofilms were washed for 30 min (3 mL/h, no compound) to monitor the retention (Figure 5). Furthermore, an analysis using CLSM was also performed after 4 h of accumulation without washing (Figures 5 and S22).
Figure 5 Staining of P. aeruginosa PAO1 biofilms grown under flow conditions with compound supplementation to the medium. Biofilm staining with (A) fluorescein divalent probe 17, (B) fluorescein control 24, (C) BODIPY divalent probe 19, and (D) BDP FL azide control 18 was monitored after 4 h of accumulation under constant flow (3 mL/h) of LB media containing 500 nM of respective compound. Retention of imaging compounds is shown after a subsequent wash period for 30 min with medium (3 mL/h, no compound). Images were recorded by using a fluorescence microscope. CLSM was performed for (E) BODIPY divalent probe 19 and the control (F) BDP FL azide 18 after 4 h of accumulation. Green signal originates from fluorescently labeled probes 17 and 19 and controls 24 and 18. P. aeruginosa constitutively expressing mCherry from pMP7605^56 is shown in red. Z-Stack size, 2 μm. Scale bar = 50 μm.
In vitro biofilm staining under flow conditions
The flow cell experiment was set up in analogy to Ghanbari et al. and in this study, optimized and established for biofilm staining.25 In principle, the experiment is based on an inlet connected to a medium source, a peristaltic pump providing constant medium flow, a flow chamber enabling analysis of bacterial growth and an outlet (waste container/bottle).
The medium used in the flow system was LB diluted by factor 5 containing 60 µg/mL
Gm. Silicone tubings 1.6 mm (ibidi, Germany) were used transporting medium from inlet to the peristaltic pump (Watson-Marlow Fluid Technology Solutions). Stopper hoses (CarlRoth) placed in peristaltic pump were coupled to silicone tubes via connectors (ibidi, Germany).
Stopper hoses are connected to bubble traps (obtained by Claus Sternberg, DTU Copenhagen) via 0.8 mm silicone tubing (ibidi, Germany). Bubble traps were used to remove air from the medium flow and to avoid biofilm disruption. Downstream from the bubble traps, the flow cell (μ-Slide VI 0.4 ibiTreat, ibidi, Germany) was placed into the system and connected to 1.6 mm silicone tubes (ibidi, Germany). The outlet is leading the medium from flow chamber to a waste […]
In order to inoculate the flow cell with P. aeruginosa PAO1 mCherry (pMP7605)23 the silicone tubes upstream and downstream of the flow chamber were pinched off by using commercial plastic clamps. The medium flow was stopped and the flow cell was inoculated by injecting 300 µL of the bacterial suspension (OD600nm of 0.1) into the silicone tubing upstream of the flow chamber. For this, a cannula (0.30 x 12 mm, Sterican) was used. The injection point was sealed with silicone glue. After bacterial settling time of 30 min, the flow was started again and clamps were removed. Growth temperature was regulated by using a heat system (ibidi, […]
Germany). […]

T1 sequence (Q05097 whole entry): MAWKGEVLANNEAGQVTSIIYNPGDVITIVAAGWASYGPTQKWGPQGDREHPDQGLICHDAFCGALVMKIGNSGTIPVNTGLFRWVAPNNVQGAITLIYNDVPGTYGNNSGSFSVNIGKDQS

In the case of O=C1OC2(c3ccc(O)cc3Oc3cc(O)ccc32)c2ccc(NC(=S)NCCOCCOCCOCCn3cc(CNc4cccc(S[C@@H]5O[C@H](CO)[C@H](O)[C@H](O)[C@H]5O)c4)nn3)cc21 [compound 2], the Kd (LecA) is reported as 5.3 ± 0.7 µM and the “Staining of biofilm aggregates” value [1] is reported as “showed staining”.
In the case of O=C1OC2(c3ccc(O)cc3Oc3cc(O)ccc32)c2ccc(NC(=S)NCCOCCOCCOCCn3cc(CNc4ccc(S[C@@H]5O[C@H](CO)[C@H](O)[C@H](O)[C@H]5O)cc4)nn3)cc21 [compound 3], the Kd (LecA) is reported as 11.6 ± 0.7 µM and the “Staining of biofilm aggregates” value [1] is reported as “showed staining”.
O=C1OC2(c3ccc(O)cc3Oc3cc(O)ccc32)c2ccc(NC(=S)NCCOCCOCCOCCn3cc(COc4ccc(S[C@@H]5O[C@H](CO)[C@H](O)[C@H](O)[C@H]5O)cc4)nn3)cc21 [compound 4] was tested, and the Kd (LecA) was 8.5 ± 0.8 µM.
In the case of C[C@@H]1O[C@H](CNS(=O)(=O)c2ccc(-c3cn(CCCNC(=O)CCCCC[N+]4=C(/C=C/C5=CC(=C/C=C6/N(C)c7ccc(S(=O)(=O)O)cc7C6(C)C)/CCC5)C(C)(C)c5cc(S(=O)(=O)[O-])ccc54)nn3)s2)[C@@H](O)[C@H](O)[C@@H]1O [compound 22], the “Average fluorescence radiant efficiency of explanted lungs” value ([2]; ex vivo analysis of organs, infected vs uninfected mice) is reported as “elevated compared with uninfected mice”, the “Cyanine7 signal in lung area, optical in vivo imaging” value ([2]; i.v. 2 h post infection, infected vs uninfected mice, 21 50 nmol/20 g, 22 100 nmol/20 g) is reported as “elevated Cyanine7 signals in the area of the lung of infected mice compared to uninfected mice” and the “Fluorescence ex vivo in lungs of uninfected animals compared to control sulfo-Cyanine7 (free acid)” value ([2]; uninfected mice, ex vivo quantification) is reported as “a certain accumulation in the lungs of uninfected animals”.
CC1=CC(C)=[N+]2C1=Cc1ccc(CCC(=O)NCCCn3cc(CCN(Cc4ccc(NC(=O)CCc5ccc(O[C@@H]6O[C@H](CO)[C@H](O)[C@H](O)[C@H]6O)cc5)cc4)Cc4ccc(NC(=O)CCc5ccc(O[C@@H]6O[C@H](CO)[C@H](O)[C@H](O)[C@H]6O)cc5)cc4)nn3)n1[B-]2(F)F [compound 19] was tested, and the “Biofilm staining after accumulation” value ([3]; 3 mL/h) was “strong staining was observed”, the “Biofilm staining by CLSM after accumulation” value [3] was “clear and strong staining predominantly at the periphery of large biofilm aggregates” and the “Retention at biofilm after wash” value ([3]; after 4 h accumulation at 500 nM, 30 min wash, 3 mL/h, no compound) was “the strong signal was still observed”.
With CC1=CC(C)=[N+]2C1=Cc1ccc(CCC(=O)NCCCN=[N+]=[N-])n1[B-]2(F)F [compound 18, BDP FL azide, reference compound] the “Biofilm staining after accumulation” value ([3]; 3 mL/h) was “did not show any enrichment” and the “Biofilm staining by CLSM after accumulation” value [3] was “no signal was observed”.
